In patent US9969699B2, “Cancer cell growth inhibitor, anticancer agent, and method for screening same, as well as novel compound” (Microbial Chemistry Research Foundation, priority 2014, dated 2018):

Key:
[1] = tested on: NIH3T3/EGFR vIII cell-transplanted tumor
[2] = tested on: NIH3T3/EGFRWT cell-transplanted tumor
Excerpt: Note that, “*” denotes t<0.05.

[3] = Acute toxicity test, tail vein administration; assay type: in vivo, ICR mice; details: tail vein once; for Organ weight Heart / Organ weight Kidney (Right) / Organ weight Liver / Organ weight Lung / Organ weight Spleen / Organ weight Thymus / Organ weight Kidney (Left): two weeks after
Method: Two-weeks after the compounds represented by the Structural Formula (1) at the above concentrations were administered to the tail veins, the mice were dissected and organs thereof were weighed.

[4] = tested on: U251 cells; assay: 3D cell culture step, EGFR vIII gene non-expressing brain tumor cells U251; assay type: cell-based; details: Test Example 3, U251 cells
Method: (§1) The following 3 brain tumor cells were used as the EGFR vIII gene non-expressing cells. • U251 cells (available from ATCC) • U87MG cells (available from ATCC) • KS-1 cells (available from ATCC) <3D Cell Culture Step>
(§2) After the 3 days of culture, the number of viable cells was counted by […]-GLO (trademark) Luminescent Cell Viability Assay (available from Promega), which was a method for quantitating ATP in viable cells. A cell proliferation inhibition rate in the 3D cell culture step was calculated according to (Expression 3) below. Cell proliferation inhibition rate(%)=(1−X/Y)×100 (Expression 3)
(§3) In the (Expression 3), X denotes the number of viable cells when the test substance was added, and Y denotes the number of viable cells when the test substance was not added.

[5] = Acute toxicity test, intraperitoneal administration; assay type: in vivo, ICR mice; details: intraperitoneally once; for Organ weight Heart / Organ weight Kidney (Left) / Organ weight Kidney (Right) / Organ weight Liver / Organ weight Lung / Organ weight Spleen / Organ weight Thymus: two weeks after
Excerpt: Two-weeks after the compounds represented by the Structural Formula (1) at the above concentrations were intraperitoneally administered, the mice were dissected and organs thereof were weighed.
Two-weeks after the compounds represented by the Structural Formula (8) at the above concentrations were intraperitoneally administered, the mice were dissected and organs thereof were weighed.

[6] = tested on: mDia; details: in vitro, reported in NPL 1; cited from earlier work
[7] = tested on: NIH3T3 cells; assay: 2D cell culture step (environment with adhesion scaffold), proliferation of NIH3T3 cells; assay type: cell-based; details: Mus musculus, 72 h; NIH3T3 cells, TC-treated plate, 3 days, […]-GLO; read-out: IC50 2D cell culture step
Method: Note that, as a negative control, the NIH3T3 cells at 2×10^3 cells/100 were seeded to the same plate in a volume of 100 μL per well and cultured at 37° C. in the presence of 5% CO2 for 3 days without the addition of the test substance.
Note that, Dulbecco's Modified Eagle Medium supplemented with 5% FBS was used for the culture.
A cell proliferation inhibition rate in the 2D cell culture step was calculated according to (Expression 2) below. Cell proliferation inhibition rate(%)=(1−D/E)×100 (Expression 2)
In the (Expression 2), D denotes the number of viable NIH3T3 cells when the test substance was added, and E denotes the number of viable NIH3T3 cells when the test substance was not added.

[8] = tested on: U87MG cells; assay: 3D cell culture step, EGFR vIII gene non-expressing brain tumor cells U87MG; assay type: cell-based; details: Test Example 3, U87MG cells
Method: as §1, §2, §3

[9] = Solubility (remark in acute toxicity test); assay type: physicochemical
[10] = 30 mg/kg intraperitoneally once a day, day 1 to day 17

Nc1ccc(Br)cc1-c1nc2ccccc2[nH]c1=O [Structural Formula (1), 3-(2-amino-5-bromophenyl)-2(1H)-quinoxalinone]
tumor weight versus negative control group ([1]; 30 mg/kg intraperitoneally once a day, 17 days after transplantation, t<0.05): significantly different
mouse body weight (weight loss) [1, 10]: weight loss was not observed
toxicity [1, 10]: no toxicity
tumor proliferation inhibiting activity [1, 10]: exhibited the tumor proliferation inhibiting activity
tumor proliferation inhibiting activity compared with Gefitinib ([1]; 30 mg/kg intraperitoneally vs Gefitinib 100 mg/kg orally): comparable
tumor proliferation inhibiting activity [2, 10]: exhibited the tumor proliferation inhibiting activity
tumor proliferation inhibiting activity compared with Gefitinib ([2]; 30 mg/kg intraperitoneally vs Gefitinib 200 mg/kg orally): comparable
Organ weight Heart ([3]; 0.39 mg/kg/0.2 mL): 121.0 mg
Organ weight Kidney (Right) ([3]; 0.39 mg/kg/0.2 mL): 168.0 mg
Organ weight Liver ([3]; 0.39 mg/kg/0.2 mL): 1325.0 mg
Organ weight Lung ([3]; 0.39 mg/kg/0.2 mL): 173.0 mg
Organ weight Spleen ([3]; 0.39 mg/kg/0.2 mL): 110.0 mg
Organ weight Thymus ([3]; 0.39 mg/kg/0.2 mL): 83.0 mg
Organ weight Heart ([3]; 0.78 mg/kg/0.2 mL): 116.0 mg
Organ weight Kidney (Left) ([3]; 0.78 mg/kg/0.2 mL): 165.0 mg
Organ weight Kidney (Right) ([3]; 0.78 mg/kg/0.2 mL): 174.0 mg
Organ weight Liver ([3]; 0.78 mg/kg/0.2 mL): 1423.0 mg
Organ weight Lung ([3]; 0.78 mg/kg/0.2 mL): 164.0 mg
Organ weight Spleen ([3]; 0.78 mg/kg/0.2 mL): 115.0 mg
Organ weight Thymus ([3]; 0.78 mg/kg/0.2 mL): 112.0 mg
Organ weight Heart ([3]; 1.56 mg/kg/0.2 mL): 121.0 mg
Organ weight Kidney (Left) ([3]; 1.56 mg/kg/0.2 mL): 170.0 mg
Organ weight Kidney (Right) ([3]; 1.56 mg/kg/0.2 mL): 167.0 mg
Organ weight Liver ([3]; 1.56 mg/kg/0.2 mL): 1471.0 mg
Organ weight Lung ([3]; 1.56 mg/kg/0.2 mL): 170.0 mg
Organ weight Spleen ([3]; 1.56 mg/kg/0.2 mL): 104.0 mg
Organ weight Thymus ([3]; 1.56 mg/kg/0.2 mL): 56.0 mg
toxicity ([3]; observed 2 weeks): no significant toxicity
inhibiting activity against scaffold-independent proliferation capacity [4]: did not exhibit an inhibiting activity
Organ weight Heart ([5]; 0.098 mg/kg/0.2 mL): 115.0 mg
Organ weight Kidney (Left) ([5]; 0.098 mg/kg/0.2 mL): 139.0 mg
Organ weight Kidney (Right) ([5]; 0.098 mg/kg/0.2 mL): 147.0 mg
Organ weight Liver ([5]; 0.098 mg/kg/0.2 mL): 1047.0 mg
Organ weight Lung ([5]; 0.098 mg/kg/0.2 mL): 160.0 mg
Organ weight Spleen ([5]; 0.098 mg/kg/0.2 mL): 78.0 mg
Organ weight Thymus ([5]; 0.098 mg/kg/0.2 mL): 67.0 mg
Organ weight Heart ([5]; 0.195 mg/kg/0.2 mL): 125.0 mg
Organ weight Kidney (Left) ([5]; 0.195 mg/kg/0.2 mL): 175.0 mg
Organ weight Kidney (Right) ([5]; 0.195 mg/kg/0.2 mL): 184.0 mg
Organ weight Liver ([5]; 0.195 mg/kg/0.2 mL): 1590.0 mg
Organ weight Lung ([5]; 0.195 mg/kg/0.2 mL): 169.0 mg
Organ weight Spleen ([5]; 0.195 mg/kg/0.2 mL): 121.0 mg
Organ weight Thymus ([5]; 0.195 mg/kg/0.2 mL): 83.0 mg
Organ weight Heart ([5]; 0.39 mg/kg/0.2 mL): 106.0 mg
Organ weight Kidney (Left) ([5]; 0.39 mg/kg/0.2 mL): 157.0 mg
Organ weight Kidney (Right) ([5]; 0.39 mg/kg/0.2 mL): 168.0 mg
Organ weight Liver ([5]; 0.39 mg/kg/0.2 mL): 1350.0 mg
Organ weight Lung ([5]; 0.39 mg/kg/0.2 mL): 160.0 mg
Organ weight Spleen ([5]; 0.39 mg/kg/0.2 mL): 95.0 mg
Organ weight Thymus ([5]; 0.39 mg/kg/0.2 mL): 74.0 mg
Organ weight Heart ([5]; 0.78 mg/kg/0.2 mL): 115.0 mg
Organ weight Kidney (Left) ([5]; 0.78 mg/kg/0.2 mL): 163.0 mg
Organ weight Kidney (Right) ([5]; 0.78 mg/kg/0.2 mL): 159.0 mg
Organ weight Liver ([5]; 0.78 mg/kg/0.2 mL): 1263.0 mg
Organ weight Lung ([5]; 0.78 mg/kg/0.2 mL): 167.0 mg
Organ weight Spleen ([5]; 0.78 mg/kg/0.2 mL): 116.0 mg
Organ weight Thymus ([5]; 0.78 mg/kg/0.2 mL): 78.0 mg
Organ weight Heart ([5]; 1.56 mg/kg/0.2 mL): 134.0 mg
Organ weight Kidney (Left) ([5]; 1.56 mg/kg/0.2 mL): 162.0 mg
Organ weight Kidney (Right) ([5]; 1.56 mg/kg/0.2 mL): 169.0 mg
Organ weight Liver ([5]; 1.56 mg/kg/0.2 mL): 1472.0 mg
Organ weight Lung ([5]; 1.56 mg/kg/0.2 mL): 178.0 mg
Organ weight Spleen ([5]; 1.56 mg/kg/0.2 mL): 103.0 mg
Organ weight Thymus ([5]; 1.56 mg/kg/0.2 mL): 85.0 mg
Organ weight Heart ([5]; 3.125 mg/kg/0.2 mL): 135.0 mg
Organ weight Kidney (Left) ([5]; 3.125 mg/kg/0.2 mL): 193.0 mg
Organ weight Kidney (Right) ([5]; 3.125 mg/kg/0.2 mL): 191.0 mg
Organ weight Liver ([5]; 3.125 mg/kg/0.2 mL): 1558.0 mg
Organ weight Lung ([5]; 3.125 mg/kg/0.2 mL): 179.0 mg
Organ weight Spleen ([5]; 3.125 mg/kg/0.2 mL): 150.0 mg
Organ weight Thymus ([5]; 3.125 mg/kg/0.2 mL): 99.0 mg
Organ weight Heart ([5]; 6.25 mg/kg/0.2 mL): 114.0 mg
Organ weight Kidney (Left) ([5]; 6.25 mg/kg/0.2 mL): 167.0 mg
Organ weight Kidney (Right) ([5]; 6.25 mg/kg/0.2 mL): 163.0 mg
Organ weight Liver ([5]; 6.25 mg/kg/0.2 mL): 1412.0 mg
Organ weight Lung ([5]; 6.25 mg/kg/0.2 mL): 178.0 mg
Organ weight Spleen ([5]; 6.25 mg/kg/0.2 mL): 104.0 mg
Organ weight Thymus ([5]; 6.25 mg/kg/0.2 mL): 68.0 mg
Organ weight Heart ([5]; 12.5 mg/kg/0.2 mL): 107.0 mg
Organ weight Kidney (Left) ([5]; 12.5 mg/kg/0.2 mL): 161.0 mg
Organ weight Kidney (Right) ([5]; 12.5 mg/kg/0.2 mL): 163.0 mg
Organ weight Liver ([5]; 12.5 mg/kg/0.2 mL): 1120.0 mg
Organ weight Lung ([5]; 12.5 mg/kg/0.2 mL): 159.0 mg
Organ weight Spleen ([5]; 12.5 mg/kg/0.2 mL): 98.0 mg
Organ weight Thymus ([5]; 12.5 mg/kg/0.2 mL): 63.0 mg
Organ weight Heart ([5]; 25 mg/kg/0.2 mL): 111.0 mg
Organ weight Kidney (Left) ([5]; 25 mg/kg/0.2 mL): 157.0 mg
Organ weight Kidney (Right) ([5]; 25 mg/kg/0.2 mL): 170.0 mg
Organ weight Liver ([5]; 25 mg/kg/0.2 mL): 1316.0 mg
Organ weight Lung ([5]; 25 mg/kg/0.2 mL): 147.0 mg
Organ weight Spleen ([5]; 25 mg/kg/0.2 mL): 98.0 mg
Organ weight Thymus ([5]; 25 mg/kg/0.2 mL): 92.0 mg
Organ weight Heart ([5]; 50 mg/kg/0.4 mL): 120.0 mg
Organ weight Kidney (Left) ([5]; 50 mg/kg/0.4 mL): 166.0 mg
Organ weight Kidney (Right) ([5]; 50 mg/kg/0.4 mL): 173.0 mg
Organ weight Liver ([5]; 50 mg/kg/0.4 mL): 1747.0 mg
Organ weight Lung ([5]; 50 mg/kg/0.4 mL): 168.0 mg
Organ weight Spleen ([5]; 50 mg/kg/0.4 mL): 132.0 mg
Organ weight Thymus ([5]; 50 mg/kg/0.4 mL): 69.0 mg
toxicity ([5]; 0.098 to 50 mg/kg, observed 2 weeks): no significant toxicity
inhibition of mDia-mediated actin assembly [6]: inhibit mDia-mediated actin assembly in vitro
IC50 [7]: > 10 µM
inhibiting activity against scaffold-independent proliferation capacity [8]: did not exhibit an inhibiting activity
solubility [9]: poor solubility
